Source: publication PMC8934836 (EJNMMI Radiopharmacy and Chemistry, 2022)
Where two headings read alike, the source gives them in different places.

Legend:
[1] = Preliminary studies on storage stability of the precursor; assay type: physicochemical; conditions: room temperature
α5β3γ2 human GABAARs = target: T1, α5β3γ2 human GABAARs (Homo sapiens, UniProt P18507+P31644); test: [^3H]flumazenil in vitro binding assay, α5β3γ2
T1 construct: expressed in transfected cells; host or cells: mouse fibroblasts, stably expressing; membranes prepared
Protocol: (§1) These samples were serially diluted in 100% DMSO in half-log units such that when 5 µl were added into a total assay volume of 500 µl, the final DMSO concentration in the assay was 1%.
(§2) In brief, mouse fibroblasts stably expressing the four subtypes of human GABAARs that contain a benzodiazepine binding site (i.e., α1-, α2-, α3- and α5β3γ2) were grown, harvested, and membranes were prepared and frozen at -80 °C until required. On the day of the assay, membranes were thawed and reconstituted in assay buffer (75 mM Tris.Cl, pH 7.4, 1 mM EDTA, 12.5 mM MgCl2) at a concentration of 101 µg/ml for α1β3γ2 and 51 µg/ml for α2-, α3- and α5β3γ2 membrane. […] Incubations were performed for 1 h at room temperature before being terminated by filtration and rapid washing (2 × 10 ml of ice-cold 50 mM Tris.Cl, pH 7.4 buffer) over Whatman GF/B filters using a Brandel cell harvester. Filters were then placed in scintillation vials, 4 ml of scintillation fluid added, and radioactivity was counted on a Tricarb 2900 scintillation counter.

α1β3γ2 human GABAARs = target: T2, α1β3γ2 human GABAARs (Homo sapiens, UniProt P14867+P18507); test: [^3H]flumazenil in vitro binding assay, α1β3γ2
T2 construct: expressed in transfected cells; host or cells: mouse fibroblasts, stably expressing; membranes prepared
Protocol: as §1, §2

α2β3γ2 human GABAARs = target: T3, α2β3γ2 human GABAARs (Homo sapiens, UniProt P18507+P47869); test: [^3H]flumazenil in vitro binding assay, α2β3γ2; conditions: read-out: Affinity at human GABAAR subtypes, α2β3γ2 (mean Ki)
T3 construct: expressed in transfected cells; host or cells: mouse fibroblasts, stably expressing; membranes prepared
Protocol: as §1, §2

α3β3γ2 human GABAARs = target: T4, α3β3γ2 human GABAARs (Homo sapiens, UniProt P18507+P34903); test: [^3H]flumazenil in vitro binding assay, α3β3γ2; conditions: read-out: Affinity at human GABAAR subtypes, α3β3γ2 (mean Ki)
T4 construct: expressed in transfected cells; host or cells: mouse fibroblasts, stably expressing; membranes prepared
Protocol: as §1, §2

[2] = mouse fibroblast membranes, 4 nM [^3H]flumazenil, Cheng-Prusoff, mean ± SEM of n = 4 separate assays

T1 sequence (P31644 32-462): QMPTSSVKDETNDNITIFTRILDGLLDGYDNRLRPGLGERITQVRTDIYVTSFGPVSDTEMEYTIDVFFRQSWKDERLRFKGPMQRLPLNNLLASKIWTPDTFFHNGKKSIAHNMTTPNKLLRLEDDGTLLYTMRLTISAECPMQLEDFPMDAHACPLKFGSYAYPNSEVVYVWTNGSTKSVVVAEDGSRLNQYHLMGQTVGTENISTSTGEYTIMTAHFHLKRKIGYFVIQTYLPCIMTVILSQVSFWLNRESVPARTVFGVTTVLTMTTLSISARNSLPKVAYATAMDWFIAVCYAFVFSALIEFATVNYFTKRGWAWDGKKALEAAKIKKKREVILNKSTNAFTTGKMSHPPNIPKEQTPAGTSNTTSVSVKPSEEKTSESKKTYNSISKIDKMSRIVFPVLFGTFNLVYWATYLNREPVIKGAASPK
T1 sequence (P28472 26-473 partner): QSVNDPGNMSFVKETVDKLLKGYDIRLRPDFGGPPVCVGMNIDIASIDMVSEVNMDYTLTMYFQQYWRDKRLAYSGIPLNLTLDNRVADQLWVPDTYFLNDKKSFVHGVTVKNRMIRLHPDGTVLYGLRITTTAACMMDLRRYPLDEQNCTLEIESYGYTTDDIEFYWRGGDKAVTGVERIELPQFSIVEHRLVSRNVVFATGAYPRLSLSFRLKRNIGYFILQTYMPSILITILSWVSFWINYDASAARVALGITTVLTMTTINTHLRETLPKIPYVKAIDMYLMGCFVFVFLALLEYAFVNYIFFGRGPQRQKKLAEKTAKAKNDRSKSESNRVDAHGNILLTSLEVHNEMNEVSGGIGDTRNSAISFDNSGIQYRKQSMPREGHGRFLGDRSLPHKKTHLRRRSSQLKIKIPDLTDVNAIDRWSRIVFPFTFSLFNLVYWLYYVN
T1 sequence (P18507 40-475): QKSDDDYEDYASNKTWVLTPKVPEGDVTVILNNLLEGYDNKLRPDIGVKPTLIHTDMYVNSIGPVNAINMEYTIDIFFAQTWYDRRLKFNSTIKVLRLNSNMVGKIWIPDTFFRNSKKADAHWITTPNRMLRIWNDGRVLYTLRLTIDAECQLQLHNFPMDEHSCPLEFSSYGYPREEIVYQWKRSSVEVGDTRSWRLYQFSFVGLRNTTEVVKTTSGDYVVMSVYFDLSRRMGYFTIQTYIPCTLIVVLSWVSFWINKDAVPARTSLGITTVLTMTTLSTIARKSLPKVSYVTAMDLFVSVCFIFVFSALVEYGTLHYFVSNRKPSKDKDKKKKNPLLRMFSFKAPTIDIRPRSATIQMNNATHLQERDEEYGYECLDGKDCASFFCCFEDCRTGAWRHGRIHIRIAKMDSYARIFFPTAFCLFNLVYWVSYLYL
T2 sequence (P14867 28-456): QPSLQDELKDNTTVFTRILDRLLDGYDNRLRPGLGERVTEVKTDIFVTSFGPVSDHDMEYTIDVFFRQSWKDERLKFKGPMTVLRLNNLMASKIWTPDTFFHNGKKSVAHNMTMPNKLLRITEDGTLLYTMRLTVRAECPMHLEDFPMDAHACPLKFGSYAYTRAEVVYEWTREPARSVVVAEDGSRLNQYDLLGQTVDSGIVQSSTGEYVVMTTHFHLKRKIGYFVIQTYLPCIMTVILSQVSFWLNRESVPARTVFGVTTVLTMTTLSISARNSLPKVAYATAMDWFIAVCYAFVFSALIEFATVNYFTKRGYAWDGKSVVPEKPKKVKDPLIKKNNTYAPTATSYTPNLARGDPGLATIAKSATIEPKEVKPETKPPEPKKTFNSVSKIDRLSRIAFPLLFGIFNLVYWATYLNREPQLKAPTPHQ
T2 sequence (P28472 26-473 partner): as the sequence (P28472 26-473 partner) above
T2 sequence (P18507 40-475): as the sequence (P18507 40-475) above
T4 sequence (P34903 29-492): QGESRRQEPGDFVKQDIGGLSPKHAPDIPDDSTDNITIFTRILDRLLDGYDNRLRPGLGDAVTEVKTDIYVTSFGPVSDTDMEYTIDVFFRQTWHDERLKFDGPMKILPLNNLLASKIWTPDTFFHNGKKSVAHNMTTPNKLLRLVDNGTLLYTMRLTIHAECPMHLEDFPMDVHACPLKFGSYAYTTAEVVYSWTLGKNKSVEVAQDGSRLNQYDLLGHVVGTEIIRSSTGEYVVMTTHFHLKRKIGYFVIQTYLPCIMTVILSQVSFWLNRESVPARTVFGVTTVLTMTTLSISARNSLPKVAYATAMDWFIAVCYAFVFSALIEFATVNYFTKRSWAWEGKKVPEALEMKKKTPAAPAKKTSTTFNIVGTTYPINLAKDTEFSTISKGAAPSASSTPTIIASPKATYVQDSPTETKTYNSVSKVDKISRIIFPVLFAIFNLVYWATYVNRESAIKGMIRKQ
T4 sequence (P28472 26-473 partner): as the sequence (P28472 26-473 partner) above
T4 sequence (P18507 40-475): as the sequence (P18507 40-475) above
T3 sequence (P47869 29-451): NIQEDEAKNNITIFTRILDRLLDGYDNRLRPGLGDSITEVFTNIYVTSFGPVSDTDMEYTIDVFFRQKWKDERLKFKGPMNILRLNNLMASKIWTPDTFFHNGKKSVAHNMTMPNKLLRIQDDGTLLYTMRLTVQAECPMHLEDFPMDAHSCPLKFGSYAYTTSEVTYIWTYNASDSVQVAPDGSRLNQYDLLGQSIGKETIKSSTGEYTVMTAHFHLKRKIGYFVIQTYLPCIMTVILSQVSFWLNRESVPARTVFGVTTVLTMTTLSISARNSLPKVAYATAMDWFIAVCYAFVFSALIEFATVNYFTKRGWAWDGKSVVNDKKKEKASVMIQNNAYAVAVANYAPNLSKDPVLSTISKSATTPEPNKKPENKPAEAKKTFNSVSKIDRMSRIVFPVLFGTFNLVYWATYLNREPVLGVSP
T3 sequence (P28472 26-473 partner): as the sequence (P28472 26-473 partner) above
T3 sequence (P18507 40-475): as the sequence (P18507 40-475) above

For `CCOC(=O)c1ncn2c1CN(C)C(=O)c1cc(B3OC(C)(C)C(C)(C)O3)ccc1-2` [FMZ-BPin, Ethyl 5-methyl-6-oxo-8(4,4,5,5-tetramethyl-1,3,2-dioxaborolan-2-yl)-5,6-dihydro-4H-benzo[f]imidazo[1,5-a][1,4]diazepine-3-carboxylate], the “Stable for prolonged storage” value [1] was over 9 months.
In the case of `CCOC(=O)c1ncn2c1CN(C)C(=O)c1ccccc1-2` [HMZ, ethyl 5-methyl-6-oxo-5,6-dihydro-4H-benzo[f]imidazo[1,5-a][1,4]diazepine-3-carboxylate], the Ki (α5β3γ2 human GABAARs) is reported as 1.7 ± 0.2 nM, the Ki (α1β3γ2 human GABAARs) is reported as 24 ± 3 nM and the Ki (α2β3γ2 human GABAARs) is reported as 15 ± 2 nM. The Ki (α3β3γ2 human GABAARs) was 11 ± 4 nM.
Work on `CCOC(=O)c1ncn2c1CN(C)C(=O)c1cc(O)ccc1-2` [OHMZ, Flumazenil impurity B] yielded a Ki (α5β3γ2 human GABAARs; mouse fibroblast membranes, 4 nM [^3H]flumazenil, Cheng-Prusoff, mean ± SEM of n = 4 separate assays, read-out: Affinity at human GABAAR subtypes, α5β3γ2 (mean Ki)) of 0.5 ± 0.1 nM, a Ki (α1β3γ2 human GABAARs; mouse fibroblast membranes, 4 nM [^3H]flumazenil, Cheng-Prusoff, mean ± SEM of n = 4 separate assays, read-out: Affinity at human GABAAR subtypes, α1β3γ2 (mean Ki)) of 5.4 ± 0.6 nM and a Ki (α2β3γ2 human GABAARs; [2]) of 7.3 ± 1.5 nM. The Ki (α3β3γ2 human GABAARs; [2]) was 2.7 ± 0.9 nM.
